The text below walks through data of publication PMC4498294, “Tetrahydroisoquinolines affect the whole-cell phenotype of Mycobacterium tuberculosis by inhibiting the ATP-dependent MurE ligase” (Journal of Antimicrobial Chemotherapy, 2015).

In brackets after ≈: the same amount, converted by molar mass. Like-named read-outs stand apart in the source and are kept apart here.

One data set relates to M. tuberculosis H37Rv. The settings on record: virulent M. tuberculosis H37Rv strain; cited from earlier work.
Data set [1] is described as follows: Aqueous kinetic solubility. Format: physicochemical. As to conditions: aqueous with cosolvent or surfactant or cyclodextrin, kinetic from dmso stock, 5% DMSO in PBS, 21°C. Here is the method:
The compounds were equilibrated in 5% DMSO in PBS at 21°C for 24 h. The samples were then centrifuged at 15000 g for 10 min. A 100 μL sample of the supernatant was carefully collected and the soluble amount of compound quantified using LC-MS/MS. A standard curve for each compound was prepared in 100% acetonitrile. Solubility results are reported as low (<0.1 mg/mL), medium (0.1–0.5 mg/mL) and high (>0.5 mg/mL).

Another data set deals with T1, CYP 1A2 (Homo sapiens, UniProt P05177).
T1 construct: purchased; host or cells: baculosomes (insect-cell microsomes; own knowledge)
T1 sequence (P05177 1-516): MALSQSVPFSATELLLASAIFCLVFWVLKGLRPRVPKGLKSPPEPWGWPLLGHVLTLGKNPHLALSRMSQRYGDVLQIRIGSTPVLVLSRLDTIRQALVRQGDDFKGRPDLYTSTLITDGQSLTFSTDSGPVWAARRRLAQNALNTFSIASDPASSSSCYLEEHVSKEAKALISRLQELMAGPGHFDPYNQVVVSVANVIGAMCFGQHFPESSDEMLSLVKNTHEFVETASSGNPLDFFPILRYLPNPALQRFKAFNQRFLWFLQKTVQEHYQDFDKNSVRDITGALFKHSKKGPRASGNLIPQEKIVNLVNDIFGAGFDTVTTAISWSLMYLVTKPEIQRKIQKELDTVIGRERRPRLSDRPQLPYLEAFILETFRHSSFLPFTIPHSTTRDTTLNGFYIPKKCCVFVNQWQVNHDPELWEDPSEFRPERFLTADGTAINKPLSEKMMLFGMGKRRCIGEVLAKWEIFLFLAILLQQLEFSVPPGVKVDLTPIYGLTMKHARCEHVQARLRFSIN
As to the kind of experiment: CYP450 inhibition assay, CYP 1A2. The class given is in vitro ADME. More on the design: dose or concentration left out as unconfirmed. As to conditions: CYP baculosomes with recombinant human CYP1A2, probe fluorogenic substrate (not named); human recombinant enzymes; read-out: Mean % inhibtion CYP 1A2. Here is the method:
(§1) The compounds originally dissolved in DMSO were added to PBS to give a resulting concentration of […]. CYP baculosomes containing cDNA for a single human P450 isozyme, the fluorogenic substrate and the NADPH were added to the test solution. The reaction was incubated at 37°C for at least 1 h. Fluorogenic substrates metabolized by CYP enzymes result in highly fluorescent products in aqueous solution. The inhibition of CYP prevents this metabolism, which corresponds to a decrease in the fluorescence signal. The fluorescence was measured on a plate reader.

The subject of the next data set is M. bovis BCG Pasteur. Description: microbe, parasite or virus in culture. Format: cell-based. As to conditions: Mycobacterium tuberculosis variant bovis BCG, BCG.
The target of another data set is T2, CYP 3A4 (Homo sapiens, UniProt P08684).
T2 construct: purchased; host or cells: baculosomes (insect-cell microsomes; own knowledge)
T2 sequence (P08684 whole entry): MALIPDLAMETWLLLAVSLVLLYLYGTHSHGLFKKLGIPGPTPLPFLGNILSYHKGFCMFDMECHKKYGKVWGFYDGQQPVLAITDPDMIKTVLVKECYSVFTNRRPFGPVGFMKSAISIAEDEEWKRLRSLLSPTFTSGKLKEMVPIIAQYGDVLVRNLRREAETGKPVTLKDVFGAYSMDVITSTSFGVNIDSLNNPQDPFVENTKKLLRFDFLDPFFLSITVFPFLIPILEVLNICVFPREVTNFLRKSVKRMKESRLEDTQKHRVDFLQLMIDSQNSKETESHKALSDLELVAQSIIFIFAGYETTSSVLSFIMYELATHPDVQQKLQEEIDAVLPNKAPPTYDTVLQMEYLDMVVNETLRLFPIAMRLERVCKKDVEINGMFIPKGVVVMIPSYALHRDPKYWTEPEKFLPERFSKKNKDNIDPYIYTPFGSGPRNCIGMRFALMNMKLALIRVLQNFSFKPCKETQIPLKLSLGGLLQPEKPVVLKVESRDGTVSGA
Description: CYP450 inhibition assay, CYP 3A4. As to conditions: CYP baculosomes with recombinant human CYP3A4, probe fluorogenic substrate (not named); human recombinant enzymes; read-out: Mean % inhibtion CYP 3A4. The class given is in vitro ADME. More on the design: dose or concentration left out as unconfirmed. As to the method:
as §1

In the next data set the target is T3, CYP 2D6 (Homo sapiens, UniProt P10635).
T3 construct: purchased; host or cells: baculosomes (insect-cell microsomes; own knowledge)
T3 sequence (P10635 whole entry): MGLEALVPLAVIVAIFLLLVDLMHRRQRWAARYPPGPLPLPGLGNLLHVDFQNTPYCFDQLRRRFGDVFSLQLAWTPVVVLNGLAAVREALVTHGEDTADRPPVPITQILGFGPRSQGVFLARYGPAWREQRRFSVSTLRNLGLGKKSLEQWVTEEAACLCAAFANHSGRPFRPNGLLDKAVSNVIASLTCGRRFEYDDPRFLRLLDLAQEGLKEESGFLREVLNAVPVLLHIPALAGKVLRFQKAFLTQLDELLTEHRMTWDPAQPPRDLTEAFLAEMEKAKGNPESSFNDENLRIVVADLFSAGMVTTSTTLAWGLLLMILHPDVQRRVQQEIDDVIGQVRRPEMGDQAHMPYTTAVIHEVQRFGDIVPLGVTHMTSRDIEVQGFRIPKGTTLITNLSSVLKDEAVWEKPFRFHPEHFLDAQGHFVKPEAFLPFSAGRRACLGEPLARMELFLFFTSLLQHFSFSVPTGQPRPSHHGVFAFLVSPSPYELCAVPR
Description: CYP450 inhibition assay, CYP 2D6. As to conditions: CYP baculosomes with recombinant human CYP2D6, probe fluorogenic substrate (not named); human recombinant enzymes; read-out: Mean % inhibtion CYP 2D6. The class given is in vitro ADME. Set-up: dose or concentration left out as unconfirmed. As to the method:
as §1

The nature of data set [2]: Human microsome stability assay. The class given is in vitro ADME. The settings on record: for Mean % microsome turnover / Mean compound remaining / Microsomal stability: human liver microsomes. Set-up: half-life: dose or concentration left out as unconfirmed. As to the method: Microsomes and NADPH were then added to the solution and the reaction was incubated at 37°C for up to 60 min. Acetonitrile (300 μL) with internal standard was added to stop the incubation. The samples were centrifuged and the supernatant was then analysed by HPLC-MS/MS to detect the parent compound.
On the technique in general: Liver microsomes are vesicles of endoplasmic reticulum, rich in cytochrome P450 enzymes.

A short description of data set [3]: Human hepatocyte stability assay. Format: in vitro ADME. Set-up: half-life / hepatocyte CLint: dose or concentration left out as unconfirmed. As to the method:
The compounds originally dissolved in DMSO were added to PBS to give a resulting concentration of 1 mM. Hepatocytes were then added to the solution and the reaction was incubated at 37°C for up to 120 min. Acetonitrile with internal standard was added to stop the incubation. The samples were centrifuged and the supernatant was then analysed by HPLC-MS/MS to detect the parent compound.

The target of data set [4] is MurE (Rv2158c) protein of M. tuberculosis H37Rv (Mycobacterium tuberculosis, UniProt P9WJL3). Description: Mtb-MurE HPLC inhibition assay. The class given is biochemical. The settings on record: HPLC assay, 37°C 30 min.
Chain of MurE (Rv2158c) protein of M. tuberculosis H37Rv (P9WJL3 whole entry, looked up): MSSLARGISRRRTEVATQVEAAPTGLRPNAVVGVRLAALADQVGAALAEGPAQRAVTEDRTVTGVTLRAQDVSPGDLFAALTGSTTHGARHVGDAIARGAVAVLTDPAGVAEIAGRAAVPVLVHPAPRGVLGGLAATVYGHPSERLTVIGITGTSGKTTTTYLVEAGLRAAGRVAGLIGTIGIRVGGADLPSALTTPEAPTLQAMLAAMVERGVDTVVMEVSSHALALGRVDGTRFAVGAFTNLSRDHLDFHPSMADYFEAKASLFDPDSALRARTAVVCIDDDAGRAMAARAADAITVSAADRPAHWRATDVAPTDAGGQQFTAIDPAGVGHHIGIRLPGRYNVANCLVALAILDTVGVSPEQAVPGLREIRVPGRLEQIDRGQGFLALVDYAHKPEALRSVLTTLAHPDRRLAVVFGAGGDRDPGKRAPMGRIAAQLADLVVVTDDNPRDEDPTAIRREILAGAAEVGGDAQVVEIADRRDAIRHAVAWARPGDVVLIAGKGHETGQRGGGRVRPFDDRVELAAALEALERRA
The test system of data set [5] is MDCK cells carrying the MDR-1 gene. Description: MDCK cell permeability assay. The class given is in vitro ADME, canine. As to conditions: MDCK MDR-1 monolayer, 10 μM, 30 min, apical to basolateral.
The test system of the next data set is MDR-1. Description: MDCK cell permeability assay. Format: in vitro ADME, canine. The settings on record: dog, MDCK-MDR1, MDCK MDR-1 monolayer, 10 μM, 30 min.
The nature of data set [6]: MDCK cell permeability assay. The class given is in vitro ADME, canine. As to conditions: dog, MDCK-MDR1; MDCK MDR-1 monolayer, class.
Data set [7] concerns murine macrophage cell line RAW264.7. As to the kind of experiment: Eukaryotic cell toxicity assay, RAW264.7. Format: cell-based. As to conditions: Mus musculus, read-out: GIC50 RAW264.7.
A further data set deals with P-glycoprotein (Homo sapiens, UniProt P08183). As to the kind of experiment: in vitro. The settings on record: dog, MDCK-MDR1. Here is the method: All dose solutions contained 10 μM propranolol as an internal standard. MDCK cells carrying the MDR-1 gene were used to seed filters that were exposed to a fixed volume of the donor solution containing the compound of interest. The compound's ability to traverse the monolayer and appear in the receiver compartment was measured over a 30 min period. Bidirectional permeability measurements were derived by examining the transfer of compound from both the apical to the basolateral compartment and vice versa. Sample analysis was conducted using LC-MS/MS with the detection settings optimized for each test compound.
Chain of P-glycoprotein (P08183 whole entry): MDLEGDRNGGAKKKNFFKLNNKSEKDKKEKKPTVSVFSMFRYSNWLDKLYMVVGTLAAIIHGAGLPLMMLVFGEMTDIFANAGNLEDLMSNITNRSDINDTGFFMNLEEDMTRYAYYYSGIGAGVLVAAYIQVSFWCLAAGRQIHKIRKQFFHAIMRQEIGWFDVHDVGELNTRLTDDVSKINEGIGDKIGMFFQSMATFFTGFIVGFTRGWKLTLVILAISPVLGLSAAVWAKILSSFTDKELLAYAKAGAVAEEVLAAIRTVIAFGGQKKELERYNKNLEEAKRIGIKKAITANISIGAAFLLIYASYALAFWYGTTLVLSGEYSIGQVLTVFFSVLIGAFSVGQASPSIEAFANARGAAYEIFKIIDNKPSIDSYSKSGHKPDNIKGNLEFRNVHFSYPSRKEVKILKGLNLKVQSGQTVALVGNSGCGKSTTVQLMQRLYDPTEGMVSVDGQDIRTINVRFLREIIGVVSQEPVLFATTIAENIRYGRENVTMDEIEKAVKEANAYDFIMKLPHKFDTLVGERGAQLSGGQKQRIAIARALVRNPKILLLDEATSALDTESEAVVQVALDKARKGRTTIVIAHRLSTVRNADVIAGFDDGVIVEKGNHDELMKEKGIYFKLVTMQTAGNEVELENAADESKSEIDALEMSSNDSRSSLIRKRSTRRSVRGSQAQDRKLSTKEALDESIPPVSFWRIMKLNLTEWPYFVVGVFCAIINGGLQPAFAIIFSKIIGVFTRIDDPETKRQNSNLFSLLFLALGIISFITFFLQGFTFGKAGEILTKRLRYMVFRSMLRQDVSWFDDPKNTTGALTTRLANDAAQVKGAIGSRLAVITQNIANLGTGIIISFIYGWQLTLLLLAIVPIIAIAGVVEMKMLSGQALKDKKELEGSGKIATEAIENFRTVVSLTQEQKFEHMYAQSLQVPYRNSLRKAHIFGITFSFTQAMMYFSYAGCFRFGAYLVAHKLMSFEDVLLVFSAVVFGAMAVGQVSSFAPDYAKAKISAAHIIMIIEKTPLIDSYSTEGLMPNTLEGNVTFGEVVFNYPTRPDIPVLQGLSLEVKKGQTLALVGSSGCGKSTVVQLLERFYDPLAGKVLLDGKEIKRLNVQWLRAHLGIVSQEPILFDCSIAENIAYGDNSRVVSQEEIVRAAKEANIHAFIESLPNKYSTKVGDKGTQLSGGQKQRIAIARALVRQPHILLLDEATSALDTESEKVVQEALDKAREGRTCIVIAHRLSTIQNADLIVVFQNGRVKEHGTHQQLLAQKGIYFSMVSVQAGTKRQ

The next data set concerns the target T4, CYP 2C19 (Homo sapiens, UniProt P33261).
T4 construct: purchased; host or cells: baculosomes (insect-cell microsomes; own knowledge)
Description: CYP450 inhibition assay, CYP 2C19. The class given is in vitro ADME. More on the design: dose or concentration left out as unconfirmed. The settings on record: CYP baculosomes with recombinant human CYP2C19, probe fluorogenic substrate (not named); human recombinant enzymes; read-out: Mean % inhibtion CYP 2C19. As to the method:
as §1

The target in a further data set is T5, CYP 2C9 (Homo sapiens, UniProt P11712).
T5 construct: purchased; host or cells: baculosomes (insect-cell microsomes; own knowledge)
T5 sequence (P11712 whole entry): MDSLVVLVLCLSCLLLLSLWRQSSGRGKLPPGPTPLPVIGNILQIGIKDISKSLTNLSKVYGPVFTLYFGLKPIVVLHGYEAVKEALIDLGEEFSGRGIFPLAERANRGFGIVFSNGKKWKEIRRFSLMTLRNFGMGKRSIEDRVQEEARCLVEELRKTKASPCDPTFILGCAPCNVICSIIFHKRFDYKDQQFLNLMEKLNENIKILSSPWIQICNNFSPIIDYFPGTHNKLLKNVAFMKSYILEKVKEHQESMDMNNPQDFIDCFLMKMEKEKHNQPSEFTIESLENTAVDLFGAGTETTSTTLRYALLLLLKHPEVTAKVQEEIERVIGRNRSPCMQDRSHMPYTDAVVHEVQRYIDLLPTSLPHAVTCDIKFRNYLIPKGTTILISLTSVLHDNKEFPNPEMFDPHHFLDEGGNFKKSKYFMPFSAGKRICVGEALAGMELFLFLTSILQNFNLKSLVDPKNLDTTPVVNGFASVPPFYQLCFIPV
Description: CYP450 inhibition assay, CYP 2C9. The class given is in vitro ADME. More on the design: dose or concentration left out as unconfirmed. As to conditions: CYP baculosomes with recombinant human CYP2C9, probe fluorogenic substrate (not named); human recombinant enzymes; read-out: Mean % inhibtion CYP 2C9. As to the method: as §1

T4 sequence (P33261 whole entry): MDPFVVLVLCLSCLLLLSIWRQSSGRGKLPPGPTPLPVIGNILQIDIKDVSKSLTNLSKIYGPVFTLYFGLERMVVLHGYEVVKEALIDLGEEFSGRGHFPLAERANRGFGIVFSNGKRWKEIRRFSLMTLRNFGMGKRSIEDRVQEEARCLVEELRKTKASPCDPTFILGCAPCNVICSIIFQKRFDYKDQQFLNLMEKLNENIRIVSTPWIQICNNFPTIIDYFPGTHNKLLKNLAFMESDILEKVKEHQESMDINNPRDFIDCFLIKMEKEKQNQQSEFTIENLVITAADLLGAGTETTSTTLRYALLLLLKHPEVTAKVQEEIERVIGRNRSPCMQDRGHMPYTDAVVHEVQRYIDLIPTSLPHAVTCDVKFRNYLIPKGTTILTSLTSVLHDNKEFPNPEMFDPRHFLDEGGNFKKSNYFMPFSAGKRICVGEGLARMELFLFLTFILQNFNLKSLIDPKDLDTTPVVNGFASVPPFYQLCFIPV

For `COc1cc2c(cc1OC)-c1c3c(cc4c1[C@H](C2)NCC4)OCO3` [(-)-Nordicentrine], the “MIC M. tuberculosis H37Rv” value in the data set with M. tuberculosis H37Rv is 12.5 µg/mL (≈ 38.4 µM).

The term kinetic solubility denotes solubility judged after dilution from a stock solution rather than from solid. The hepatocyte CLint is the capacity of the preparation to metabolise the compound, expressed as a volume cleared per time. What is called Papp A→B is how fast a substance crosses the layer from the apical side. One may read the Papp B→A as how fast a substance crosses the layer from the basolateral side. The term efflux ratio denotes a quotient of directional permeabilities that is used to spot active efflux. In turn, `Oc1ccc(Br)c2c1C(c1cccc3c1OCO3)NCC2` (stereo not drawn) [Compound 35] displayed a kinetic solubility at 24 h in data set [1] of 300 µg/mL (≈ 862 µM). The inhibition on CYP 1A2 came out at 36.7%; on CYP 3A4, 80%; on CYP 2D6, 80.7%; at CYP 2C19 it was 98.2%; on CYP 2C9, 44.9%. Also, the MIC in the data set with M. bovis BCG Pasteur (336 h, read-out: MIC M. bovis BCG, SPOTi, 2 weeks at 37°C) came to 60 µg/mL; in the data set on M. bovis BCG Pasteur (read-out: MIC M. bovis BCG, SPOTi, value in square brackets), 172 µM. Further, the “Mean % microsome turnover” value in data set [2] (0 min) is recorded as -5.55e-15%; in data set [2] (15 min), 3.85%; in data set [2] (30 min) it was 14.54%; in data set [2] (60 min), 30.44%. The Mean compound remaining is given as 100.00 in data set [2] (0 min), 96.15 in data set [2] (15 min), 85.46 in data set [2] (30 min) and 69.56 in [2] (60 min). Also, the Microsomal stability in [2] (0 min) is 4.60; in data set [2] (15 min), 4.57; in data set [2] (30 min), 4.45; in [2] (60 min), 4.24. Besides, the half-life in data set [2] (human, liver microsomes, read-out: t1/2 microsomes) was 1.83 h; in data set [3] (human, hepatocytes, human hepatocytes, read-out: t1/2 hepatocytes) it was 1.31 h. In addition, the hepatic extraction ratio in data set [3] (hepatocyte stability assay) is above 0.6. Moreover, the hepatocyte CLint in data set [3] (human, hepatocytes, in vivo hepatic intrinsic clearance prediction values) is 12.6 µL/min/1e6 cells. Further, the IC50 in data set [4] is below 111 µM; in data set [7] (RAW264.7, value in square brackets) it was 348 µM; in data set [7] (murine macrophage cell line RAW264.7), 121 µg/mL. For the same compound, the “Papp A-B” value in data set [5] was 3.2 cm/sec, x10-6. In addition, the Papp A→B at 30 min, 10 μM in the data set on MDR-1 (apical to basolateral) is 3.2 ×10⁻⁶ cm/s; in data set [6] it was 2 to 20 ×10⁻⁶ cm/s. Moreover, the Papp B→A at 30 min, 10 μM in the data set with MDR-1 (basolateral to apical) was determined as 38 ×10⁻⁶ cm/s. Also, on P-glycoprotein, the efflux ratio came out at 11.9.
